The values that follow are results of earlier work, collected in patent US20060204571A1, “Stable compositions of bupropion or its pharmaceutically acceptable salts” (Sun Pharmaceutical Industries Limited, priority 2005, published 2006).

The conditions of this series: background statement.

With `CC(NC(C)(C)C)C(=O)c1cccc(Cl)c1.Cl` (racemic) [Bupropion hydrochloride, (±)-1-(3-chlorophenyl)-2-[(1,1-dimethylethyl)amino]-1-propanone hydrochloride], the “solubility in water (in words)” value is “water-soluble”.
